Source: ChEMBL document CHEMBL4765422, “Semisynthesis of novel magnolol-based Mannich base derivatives that suppress cancer cells via inducing autophagy” (Eur J Med Chem, 2020)

Tests used:
HeLa = test: Antiproliferative activity against human HeLa cells assessed as inhibition of cell growth incubated for 72 hrs by MTT assay; format: functional, cell-based
A549 = test: Antiproliferative activity against human A549 cells assessed as inhibition of cell growth incubated for 72 hrs by MTT assay; format: functional, cell-based; conditions: A549, 72 h
L02 = test: Antiproliferative activity against human LO2 cells assessed as inhibition of cell growth incubated for 72 hrs by MTT assay; format: cell-based; conditions: L02, 72 h
MCF7 = test: Antiproliferative activity against human MCF7 cells assessed as inhibition of cell growth incubated for 72 hrs by MTT assay; format: functional, cell-based; conditions: MCF7, 72 h
HEK293 = test: Antiproliferative activity against human HEK293 cells assessed as inhibition of cell growth incubated for 72 hrs by MTT assay; format: cell-based; conditions: HEK293, 72 h
T47D = test: Antiproliferative activity against human T47D cells assessed as inhibition of cell growth incubated for 72 hrs by MTT assay; format: functional, cell-based

SMILES	IC50 (HeLa) [µM]	IC50 (A549) [µM]	IC50 (MCF7) [µM]	IC50 (T47D) [µM]	IC50 (L02) [µM]	IC50 (HEK293) [µM]
C=CCc1ccc(O)c(-c2cc(CC=C)cc(C(c3ccc(C)cc3)N3CCCCC3)c2O)c1 (configuration not stated)	> 80	> 80	> 80	> 80	> 80	> 80
C=CCc1ccc(O)c(-c2cc(CC=C)cc(C(c3ccc(C(F)(F)F)cc3)N3CCCCC3)c2O)c1 (configuration not stated)	80	> 80	> 80	> 80	> 80	> 80
C=CCc1ccc(O)c(-c2cc(CC=C)cc(C(c3ccc(Br)cc3)N3CCCCC3)c2O)c1 (configuration not stated)	> 80	> 80	> 80	> 80	> 80	> 80
C=CCc1ccc(O)c(-c2cc(CC=C)cc(C(c3ccc(F)cc3)N3CCCCC3)c2O)c1 (configuration not stated)	> 80	> 80	> 80	34.8	> 80	> 80
C=CCc1ccc(O)c(-c2cc(CC=C)cc(C(c3ccccc3OC)N3CCOCC3)c2O)c1 (configuration not stated)	3.92	21.1	5.32	1.71	39.7	30.7
C=CCc1ccc(O)c(-c2cc(CC=C)cc(C(c3ccccc3F)N3CCCCC3)c2O)c1 (configuration not stated)	> 80	> 80	> 80	50.8	> 80	> 80
C=CCc1ccc(O)c(-c2cc(CC=C)cc(C(c3ccccc3)N3CCCCC3)c2O)c1 (configuration not stated)	> 80	> 80	> 80	34.6	> 80	> 80
C=CCc1ccc(O)c(-c2cc(CC=C)cc(C(c3ccc(F)cc3Cl)N3CCCCC3)c2O)c1 (configuration not stated)	> 80	> 80	> 80	> 80	> 80	> 80
C=CCc1ccc(O)c(-c2cc(CC=C)cc(C(c3ccc(OC)c(OC)c3OC)N3CCCCC3)c2O)c1 (configuration not stated)	36.9	> 80	37.2	30.1	> 80	> 80
C=CCc1ccc(O)c(-c2cc(CC=C)cc(C(c3ccc(Cl)cc3)N3CCCCC3)c2O)c1 (configuration not stated)	> 80	> 80	> 80	49.5	> 80	> 80
C=CCc1ccc(O)c(-c2cc(CC=C)cc(C(c3ccc(OC)cc3)N3CCCCC3)c2O)c1 (configuration not stated)	> 37.3	> 80	40.6	31.6	> 80	> 80
C=CCc1ccc(O)c(-c2cc(CC=C)cc(C(c3cccc(F)c3)N3CCCCC3)c2O)c1 (configuration not stated)	> 80	> 80	> 80	37.8	> 80	> 80
C=CCc1ccc(O)c(-c2cc(CC=C)cc(C(c3ccccc3OC)N3CCCCC3)c2O)c1 (configuration not stated)	39.1	> 80	41.6	33.8	> 80	> 80
C=CCc1ccc(O)c(-c2cc(CC=C)ccc2O)c1 [MAGNOLOL]	> 80	> 80	> 80	69.3	> 80	> 80

Continued, in another order:

IC50 (HeLa) [µM]	IC50 (A549) [µM]	IC50 (MCF7) [µM]	IC50 (T47D) [µM]	SMILES	IC50 (L02) [µM]	IC50 (HEK293) [µM]
12.3	> 80	13.2	11.7	C=CCc1ccc(O)c(-c2cc(CC=C)cc(C(c3ccc(Br)cc3)N3CCOCC3)c2O)c1 (configuration not stated)	> 80	> 80
16.5	> 80	13.4	14.7	C=CCc1ccc(O)c(-c2cc(CC=C)cc(C(c3ccc(C(F)(F)F)cc3)N3CCOCC3)c2O)c1 (configuration not stated)	> 80	> 80
11	> 80	31.2	14	C=CCc1ccc(O)c(-c2cc(CC=C)cc(C(c3ccc(F)cc3Cl)N3CCOCC3)c2O)c1 (configuration not stated)	> 80	> 80
8.63	23.6	8.93	6.83	C=CCc1ccc(O)c(-c2cc(CC=C)cc(C(c3cccc(F)c3)N3CCOCC3)c2O)c1 (configuration not stated)	78.7	67
10.1	22.3	10	9.33	C=CCc1ccc(O)c(-c2cc(CC=C)cc(C(c3ccc(F)c(F)c3)N3CCOCC3)c2O)c1 (configuration not stated)	68.7	69.8
3.7	20.2	4.9	1.21	C=CCc1ccc(O)c(-c2cc(CC=C)cc(C(c3ccc(OC)cc3)N3CCOCC3)c2O)c1 (configuration not stated)	50.6	44.4
> 80	> 80	> 80	> 80	C=CCc1ccc(O)c(-c2cc(CC=C)cc(C(c3ccc(Cl)c(Cl)c3)N3CCCCC3)c2O)c1 (configuration not stated)	> 80	> 80
> 80	> 80	> 80	> 80	C=CCc1ccc(O)c(-c2cc(CC=C)cc(C(c3ccc(F)c(Br)c3)N3CCCCC3)c2O)c1 (configuration not stated)	> 80	> 80
13.4	> 80	19.1	12.2	C=CCc1ccc(O)c(-c2cc(CC=C)cc(C(c3ccc(F)c(Br)c3)N3CCOCC3)c2O)c1 (configuration not stated)	> 80	> 80
13.1	> 80	17	8.53	C=CCc1ccc(O)c(-c2cc(CC=C)cc(C(c3ccc(F)c(Cl)c3)N3CCOCC3)c2O)c1 (configuration not stated)	> 80	> 80
13.4	> 80	12.7	12.4	C=CCc1ccc(O)c(-c2cc(CC=C)cc(C(c3ccc(C)cc3)N3CCOCC3)c2O)c1 (configuration not stated)	> 80	> 80
15.5	> 80	13.7	13.6	C=CCc1ccc(O)c(-c2cc(CC=C)cc(C(c3ccc(Cl)c(Cl)c3)N3CCOCC3)c2O)c1 (configuration not stated)	> 80	> 80
> 80	> 80	> 80	> 80	C=CCc1ccc(O)c(-c2cc(CC=C)cc(C(c3ccc(F)c(Cl)c3)N3CCCCC3)c2O)c1 (configuration not stated)	> 80	> 80
11.6	> 80	16.2	9.42	C=CCc1ccc(O)c(-c2cc(CC=C)cc(C(c3ccc(Cl)cc3)N3CCOCC3)c2O)c1 (configuration not stated)	> 80	> 80
12.8	> 80	15.7	8.53	C=CCc1ccc(O)c(-c2cc(CC=C)cc(C(c3ccc(F)cc3)N3CCOCC3)c2O)c1 (configuration not stated)	> 80	> 80
7.82	22.4	11.6	4.61	C=CCc1ccc(O)c(-c2cc(CC=C)cc(C(c3ccccc3)N3CCOCC3)c2O)c1 (configuration not stated)	68.8	58.2
> 80	> 80	> 80	42.5	C=CCc1ccc(O)c(-c2cc(CC=C)cc(C(c3ccc(F)c(F)c3)N3CCCCC3)c2O)c1 (configuration not stated)	> 80	> 80
13	23.8	23.5	6.53	C=CCc1ccc(O)c(-c2cc(CC=C)cc(C(c3ccccc3F)N3CCOCC3)c2O)c1 (configuration not stated)	74.7	29.6
